± gives the expanded uncertainty stated by the source.
What was measured:
[1] = Molar enthalpy of transition or fusion; conditions: Crystal; DSC
[2] = Crystal; DTA

O=C(c1ccccc1)C(C(=O)c1ccccc1)[C@H](C[N+](=O)[O-])c1ccccc1
Molar enthalpy of transition or fusion [1]: 7.65 ± 0.217 kcal/mol | Normal melting temperature [2]: 135.60 ± 0.5 °C
